Results published in PMC11045757, “Group 3 medulloblastoma transcriptional networks collapse under domain specific EP300/CBP inhibition” (Nature Communications, 2024).
Where “and” joins values, the source holds several entries; their conditions need not be identical. Identical values can stand only once. Like-named read-outs stand apart in the source and are kept apart here.

How the values were obtained:
EP300 bromodomain [1] = molecular target: T1, EP300 bromodomain (Homo sapiens, UniProt Q09472); experiment: Isothermal titration calorimetry (ITC); format: binding; conditions: single ITC experiment, data fit ± SEM
T1 construct: 6xHis (cleaved yes); host or cells: E. coli BL21 (DE3) RIL
T1 sequence (Q09472 1048-1161): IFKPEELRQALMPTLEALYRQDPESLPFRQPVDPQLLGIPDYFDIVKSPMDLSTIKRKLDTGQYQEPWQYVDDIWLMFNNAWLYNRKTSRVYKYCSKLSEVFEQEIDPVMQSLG
Description: (§1) After 18 h growth, the culture was harvested by centrifugation at 6000 × g for 25 min and stored at -80 °C. Harvested cell pellets were re-suspended in 50 mM Na/K phosphate buffer (pH 7.4) containing 100 mM NaCl, 40 mM imidazole, 0.01% w/v lysozyme and 0.01% v/v Triton X-100 at 4 °C for 1 h, subjected to sonication and the lysate was clarified by centrifugation (30,000 × g for 45 min at 4 °C). Proteins were purified by FPLC at 4 °C using columns and chromatography materials from GE Healthcare. […] Proteins were purified to homogeneity by size exclusion chromatography using Superdex 75 equilibrated with elution buffer (50 mM HEPES pH 7.5, 100 mM NaCl, 2 mM DTT). […] Pool fractions were combined, concentrated to 10–12 mg/ml, and aliquots were flash-frozen in liquid N2 and stored at −80 °C.

CBP bromodomain [2] = molecular target: T2, CBP bromodomain (Homo sapiens, UniProt Q92793); experiment: Isothermal titration calorimetry (ITC); format: binding; conditions: single ITC experiment, data fit ± SEM
T2 construct: CBP (residues 1081-1197); 6xHis (cleaved yes); host or cells: E. coli BL21 (DE3) RIL
T2 sequence (Q92793 1081-1197): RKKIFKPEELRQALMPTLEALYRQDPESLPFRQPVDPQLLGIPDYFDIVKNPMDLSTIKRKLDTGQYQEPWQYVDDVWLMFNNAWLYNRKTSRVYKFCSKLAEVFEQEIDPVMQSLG
Description: as §1

[3] = tested on: HDMB03 (HDMBO3) group 3 medulloblastoma cells; experiment: CellTiter-Glo dose-response growth assay; format: cell-based
Description: (§2) CellTiter-Glo assay was performed as per the manufacturer’s instructions, at the noted timepoint after compound treatment or plating. For Kelly, TE617T, RhJT, NCIH2122, NCIH650 and 143B, 500 cells were plated in normal growth media per well in a 384-well plate (Corning). HDMB03 and MB002 cells were plated in growth media at 500 cells/well in a 384-well plate. […] Cells were incubated for the noted timepoints prior to performing CellTiter-Glo assay as per the manufacturer’s instructions, and reading plates on an Envision 2104 microplate reader.

EP300 bromodomain [4] = molecular target: T1, EP300 bromodomain; experiment: Differential scanning fluorimetry (DSF) thermal shift; format: binding; conditions: DSF; 5 μM protein, 100 μM compound; three independent experiments, average ± SD
Summary of the method: (§3)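 Thermal shift of 5 μM E. coli-expressed bromodomain with 100 μM compound in 50 mM HEPES pH 7.5, 150 mM NaCl, 2 mM DTT, 2% DMSO, 5X SYPRO Orange, quadruplicate. Heated 25→95 °C at 1 °C/min, fluorescence at 610 nm; ΔTm relative to DMSO reference wells.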

BRD4-BD1 (BRD4-1) [5] = molecular target: T3, BRD4-BD1 (BRD4-1) (Homo sapiens, UniProt O60885); experiment: as above; format: binding; conditions: DSF; 5 μM protein, 100 μM compound; three independent experiments, average ± SD
T3 construct: BRD4-BD1 (residues 44-168); 6xHis (cleaved yes); host or cells: E. coli BL21 (DE3) RIL
Summary of the method: as §3

CBP bromodomain [6] = experiment: as above; format: binding; conditions: ΔTm (CBP)/ΔTm(BRD4)
CBP bromodomain [7] = molecular target: T2, CBP bromodomain; experiment: as above; format: binding; conditions: DSF; 5 μM protein, 100 μM compound; three independent experiments, average ± SD
BRD4-BD1 (BRD4-1) [8] = molecular target: T3, BRD4-BD1 (BRD4-1); experiment: Isothermal titration calorimetry (ITC); format: binding
Description: At OD600 of 0.6, the culture was cooled down to 18 °C and induced with 0.1 mM IPTG. After 18 h growth, the culture was harvested by centrifugation at 6000 × g for 25 min and stored at -80 °C. Harvested cell pellets were re-suspended in 50 mM Na/K phosphate buffer (pH 7.4) containing 100 mM NaCl, 40 mM imidazole, 0.01% w/v lysozyme and 0.01% v/v Triton X-100 at 4 °C for 1 h, subjected to sonication and the lysate was clarified by centrifugation (30,000 × g for 45 min at 4 °C). Proteins were purified by FPLC at 4 °C using columns and chromatography materials from GE Healthcare. […] Proteins were purified to homogeneity by size exclusion chromatography using Superdex 75 equilibrated with elution buffer (50 mM HEPES pH 7.5, 100 mM NaCl, 2 mM DTT). All BRDs eluted as monomeric protein and were of crystallization grade quality (>95% purity as judged by SDS-PAGE). Pool fractions were combined, concentrated to 10–12 mg/ml, and aliquots were flash-frozen in liquid N2 and stored at −80 °C.
All experiments were conducted using an PEAQ-ITC calorimeter (Malvern Scientific). BRDs were buffer exchanged using PD10 columns (GE life sciences) into 50 mM HEPES pH7.5 and 100 mM NaCl (ITC buffer) before the experiment and concentrated to ∼10 mg/mL. Experiments were carried out in ITC buffer while stirring at 750 rpm through reverse titration. The microsyringe (40 μL load volume) was loaded with the protein sample (250–600 μM protein in ITC buffer) and inserted into the calorimetric cell (0.2 mL cell volume) consisting of compound (20–60 μM in ITC buffer). All titrations were conducted using an initial control injection of 0.2 μL followed by 13 identical injections (~3 μL per injection) with a duration of 2 s (per injection) and a spacing of 150 s between injections. The ratio of protein/compound was optimized to ensure complete saturation of the titrant before the final injection to ensure proper baseline determination. Data were corrected for dilution and analyzed using the MicroCal Origin software to determine the enthalpies of binding (ΔH) and binding constants as described. Thermodynamic parameters were calculated using the basic equation of thermodynamics (ΔG = ΔH − TΔS = −RTlnKB) where ΔG, ΔH and ΔS are the changes in free energy, enthalpy and entropy of binding, respectively. A single binding site model was used for all ligand-protein interactions.

[9] = tested on: MB002 group 3 medulloblastoma cells; experiment: CellTiter-Glo dose-response growth assay; format: cell-based; conditions: day 3; read-out: d3 IC50 MB002
Description: as §2

HDMB03 (HDMBO3) cells = experiment: ERCC spike-in RNAseq gene expression after 6 h treatment; format: cell-based; conditions: HDMBO3, replicate values, Supplementary Fig 6c
Description: (§4) First, we examined global changes in gene expression induced by drug treatment.
(§5) External RNA consortium control RNAs (ERCC, Ambion) were added directly to Trizol, based on cell number prior to RNA extraction. RNA samples were treated with DNAse I (Invitrogen) prior to recovery. Samples were obtained in biological triplicate. Total RNA was subjected to ribosomal RNA depletion prior to library preparation using the Truseq Stranded Total Library Prep Kit (Illumina) and sequencing on a Nextseq-500 (paired end, 100 bp reads).
(§6) Sequences were aligned using HISAT2 (version 2.1.0)[77] in paired-end mode with default parameters to build version hg19 of the human genome to which the sequences of the ERCC synthetic spike-in RNAs (http://tools.invitrogen.com/downloads/ERCC92.fa) had been added. Per-gene expression was quantified using htseq-count[78] with parameters “-i gene_id --stranded=reverse -f bam -m,” and version 87 of the canonical GRCh37 gene list from RefSeq to which ERCC coordinates were added. TPM-normalized (Transcripts Per Million) expression was then computed for each gene and synthetic ERCC spike-in RNA. Per-gene exon length was calculated across all exons of all isoforms of each gene. The standard TPM-normalization strategy is: normterm = sum of (read count * read length/exon length) across all genes. TPM = read count * read length/exon length * 1e6/normterm. We used a loess regression to normalize the TPM values across all samples of the batch, using only the spike-in values to fit the loess by the “affy” R package[79] with function loess.normalize. This function allowed us to perform loess regression on a matrix of TPM values and used the ERCC subset of data for fitting the loess. The output from this was a matrix of normalized TPM values controlled by ERCC spike-ins.
(§7) We used the elbow method[81] to determine the k value in k-means cluster analysis.
(§8) Dependency analysis was performed using the 22Q4 release of the DepMap dataset, comprising seven medulloblastoma cell lines: UW228, DAOY, ONS76, D458, D425, D283MED, D341MED. Dependency was defined as a Chronos gene effect score of <−0.5, and gene lists were filtered for dependency in >2/7 medulloblastoma cell lines. […] PANTHER was used to define gene annotations, with unknown annotations assigned using individual assessment using the Genecards.org resource.

MB002 cells = experiment: as above; format: cell-based; conditions: MB002, replicate values, Supplementary Fig 6c
Description: as §4, §5, §6, §7, §8

Kd (EP300 bromodomain [1])	Kd (CBP bromodomain [2])	IC50 ([3]; Homo sapiens, HD-MB03, HDMBO3 G3MB cell growth, read-out: IC50 (nM) HDMBO3)	∆Tm (°C) EP300 (EP300 bromodomain [4])	∆Tm (°C) BRD4-1 (BRD4-BD1 (BRD4-1) [5])	∆Tm (°C) CBP (CBP bromodomain [7])	reduction of activity against BRD4 (BRD4-BD1 (BRD4-1) [8]; relative to CCS1477)	Kd (BRD4-BD1 (BRD4-1) [8]; single ITC experiment, data fit ± SEM)	SMILES	Ratio CBP/BRD4 of ∆Tm (CBP bromodomain [6])	IC50 [9]	IC50 ([3]; day 3, read-out: d3 IC50 HDMBO3)	Normalized MYC expression (HDMB03 (HDMBO3) cells)	Normalized MYC expression (MB002 cells)
2300 ± 386 nM	1550 ± 600 nM	> 100000 nM	7.3 ± 1.3 °C	2.1 ± 0.06 °C	7.8 ± 0.43 °C	~ 10 fold	4210 ± 400 nM	Cc1noc(C)c1-c1ccc2c(c1)nc(C1CCCC(=O)N1)n2C1CCC(NC(=O)OC(C)(C)C)CC1 (stereo not shown) [Compound 1]	3.7	–	–	–	–
–	–	–	–	–	–	–	–	Cc1sc2c(c1C)C(c1ccc(Cl)cc1)=N[C@@H](CC(=O)OC(C)(C)C)c1nnc(C)n1-2 [JQ1]	–	107 nM	100 nM	0.9657 and 0.7621 and 0.679	0.8713 and 1.005 and 0.8421
